Data taken from US9556165B2 (priority 2012, dated 2017).
Converted amounts (≈) assume the structure as drawn. Read-outs that look alike come from different tables or passages of the source.

Key:
Type in all cases: cell-based
[1] = tested on: S. maltophilia ICB7569; assay: MIC determination, broth microdilution (CLSI); conditions: strain 10
[2] = tested on: E. coli J62-TEM-3; assay: MIC determination, broth microdilution (CLSI); conditions: broth microdilution; for MIC: Escherichia coli, J62TEM3, read-out: MIC strain 18 (E. coli J62-TEM-3), strain 18
[3] = tested on: M. morganii 126/3048; assay: MIC determination, broth microdilution (CLSI); conditions: for MIC: Morganella morganii, 126/3048, strain 5
[4] = tested on: C. freundii K21/3034; assay: MIC determination, broth microdilution (CLSI); conditions: for MIC: Citrobacter freundii, K21/3034, strain 4
[5] = tested on: H. influenzae ATCC 49247; assay: MIC determination, broth microdilution (CLSI); conditions: broth microdilution; for MIC: Haemophilus influenzae, ATCC49247, strain 12, read-out: MIC strain 12 (H. influenzae ATCC 49247)
[6] = tested on: P. aeruginosa PAO1; assay: MIC determination, broth microdilution (CLSI); conditions: for MIC: Pseudomonas aeruginosa, PAO1, strain 6
[7] = tested on: E. cloacae 34654; assay: MIC determination, broth microdilution (CLSI); conditions: for MIC: Enterobacter cloacae, 34654, strain 3
[8] = tested on: P. aeruginosa 2297-con (AmpC derepressed); assay: MIC determination, broth microdilution (CLSI); conditions: for MIC: Pseudomonas aeruginosa, read-out: strain 8 MIC, strain 8
[9] = tested on: S. pneumoniae 113; assay: MIC determination, broth microdilution (CLSI); conditions: broth microdilution; for MIC: Streptococcus pneumoniae, 113, strain 13, read-out: MIC strain 13 (S. pneumoniae 113)
[10] = tested on: K. pneumoniae 60; assay: MIC determination, broth microdilution (CLSI); conditions: for MIC: Klebsiella pneumoniae, 60, strain 2
[11] = tested on: P. aeruginosa 2297 (AmpC wt); assay: MIC determination, broth microdilution (CLSI); conditions: for MIC: Pseudomonas aeruginosa, strain 7
[12] = tested on: E. coli ATCC25922; assay: MIC determination, broth microdilution (CLSI); conditions: for MIC: Escherichia coli, ATCC25922, strain 1
[13] = tested on: S. aureus 133; assay: MIC determination, broth microdilution (CLSI)
[14] = tested on: Bacteria; assay: MIC determination in combination with β-lactamase inhibitors (constant 4 μg/mL)
[15] = tested on: A. baumannii ATCC15308; assay: MIC determination, broth microdilution (CLSI); conditions: for MIC: Acinetobacter baumannii, ATCC15308, strain 9
[16] = tested on: E. coli J62; assay: MIC determination, broth microdilution (CLSI); conditions: broth microdilution; for MIC: Escherichia coli, J62, strain 17, read-out: MIC strain 17 (E. coli J62)
[17] = tested on: B. fragilis 6688; assay: MIC determination, broth microdilution (CLSI); conditions: Bacteroides fragilis, 6688, strain 15; broth microdilution; read-out: MIC strain 15 (B. fragilis 6688)
[18] = tested on: C. perfringens DSM756; assay: microbe, parasite or virus in culture; conditions: Clostridium perfringens, DSM756, read-out: MIC strain 16 (C. perfringens DSM756), strain 16; broth microdilution
[19] = Staphylococcus aureus, 133, strain 11, read-out: strain 11 MIC
[20] = Staphylococcus aureus, 133, strain 14, broth microdilution, read-out: MIC strain 14 (S. aureus 133)

| Compound | MIC strain 19 (E. coli J62-TEM-3 + 4 μg/mL clavulanic acid) [14] [µg/mL] | MIC strain 20 (E. coli J62-TEM-3 + 4 μg/mL sulbactam) [14] [µg/mL] | MIC strain 21 (E. coli J62-TEM-3 + 4 μg/mL tazobactam) [14] [µg/mL] | MIC [2] [µg/mL] | MIC [3] [µg/mL] | MIC [4] [µg/mL] | MIC [5] [µg/mL] | MIC [6] [µg/mL] | MIC [7] [µg/mL] | MIC [9] [µg/mL] | MIC [10] [µg/mL] | MIC [17] [µg/mL] | MIC [12] [µg/mL] | MIC [13, 19] [µg/mL] | MIC [15] [µg/mL] | MIC [16] [µg/mL] | MIC [18] [µg/mL] | MIC [11] [µg/mL] | MIC [13, 20] [µg/mL] | other results |
| --- | --- | --- | --- | --- | --- | --- | --- | --- | --- | --- | --- | --- | --- | --- | --- | --- | --- | --- | --- | --- |
| CC1(C)[C@H](NC(=O)/C(=N\OC(COc2ccc(C(=N)NCCN)cc2)C(=O)O)c2csc(N)n2)C(=O)N1OS(=O)(=O)O (mixture of isomers) [Example 44B, (2R and 2S)-3-{4-[N-(2-Aminoethyl)carbamimidoyl]phenoxy}-2-({[(1Z)-1-(2-amino-1,3-thiazol-4-yl)-2-{[(3S)-2,2-dimethyl-4-oxo-1-(sulfooxy)azetidin-3-yl]amino}-2-oxoethylidene]amino}oxy)propanoic acid] | 2 | 2 | 4 | – | – | – | – | – | – | – | – | – | – | – | – | – | – | – | – | strain 10 MIC [1]: 16 µg/mL; MIC strain 18 (E. coli J62-TEM-3) ([2]; strain 18): 4 µg/mL; strain 5 MIC ([3]; strain 5): 4 µg/mL; strain 4 MIC ([4]; strain 4): 2 µg/mL; MIC strain 12 (H. influenzae ATCC 49247) ([5]; strain 12): 0.5 µg/mL; strain 6 MIC ([6]; strain 6): 8 µg/mL; strain 3 MIC ([7]; strain 3): 4 µg/mL; strain 8 MIC ([8]; strain 8): 8 µg/mL; MIC strain 13 (S. pneumoniae 113) ([9]; strain 13): 4 µg/mL; strain 2 MIC ([10]; strain 2): 1 µg/mL; strain 7 MIC [11]: 16 µg/mL; strain 1 MIC ([12]; strain 1): 2 µg/mL; strain 11 MIC ([13]; strain 11): ≦0.063 mg/L; strain 9 MIC ([15]; strain 9): 8 µg/mL; MIC strain 17 (E. coli J62) ([16]; strain 17): 2 µg/mL |
| CC1(C)[C@H](NC(=O)/C(=N\OCC(Oc2ccc(C(=N)N)cc2)C(=O)O)c2csc(N)n2)C(=O)N1OS(=O)(=O)O (single isomer, unassigned) [Example 87A] | 1 | 1 | 2 | 32 (≈ 54.6 µM) | 0.25 (≈ 0.427 µM) | 1 (≈ 1.71 µM) | 0.25 (≈ 0.427 µM) | 32 (≈ 54.6 µM) | 1 (≈ 1.71 µM) | 0.5 (≈ 0.854 µM) | 1 (≈ 1.71 µM) | 32 (≈ 54.6 µM) | 1 (≈ 1.71 µM) | ≤ 0.063 | 8 (≈ 13.7 µM) | 2 (≈ 3.42 µM) | 8 (≈ 13.7 µM) | – | – | – |
| C[C@H]1[C@H](NC(=O)/C(=N\OCCOc2ccc(C(=N)N)cc2)c2csc(N)n2)C(=O)N1OS(=O)(=O)O [Example 47, (2Z)-2-(2-Amino-1,3-thiazol-4-yl)-2-{[2-(4-carbamimidoylphenoxy)ethoxy]imino}-N-[(2S,3S)-2-methyl-4-oxo-1-(sulfooxy)azetidin-3-yl]ethanamide] | 0.5 | 0.5 | 0.5 | 32 (≈ 60.7 µM) | 2 (≈ 3.79 µM) | 0.5 (≈ 0.948 µM) | 0.125 (≈ 0.237 µM) | 4 (≈ 7.58 µM) | 1 (≈ 1.9 µM) | 0.125 (≈ 0.237 µM) | 0.5 (≈ 0.948 µM) | 16 (≈ 30.3 µM) | 0.25 (≈ 0.474 µM) | ≤ 0.063 | 2 (≈ 3.79 µM) | 0.5 (≈ 0.948 µM) | 1 (≈ 1.9 µM) | 2 (≈ 3.79 µM) | 1 (≈ 1.9 µM) | – |
| CC1(C)[C@H](NC(=O)/C(=N\OCCCOc2ccc(C(=N)N)cc2)c2csc(N)n2)C(=O)N1OS(=O)(=O)O [Example 58, (2Z)-2-(2-Amino-1,3-thiazol-4-yl)-2-{[3-(4-carbamimidoylphenoxy)propoxy]imino}-N-[(3S)-2,2-dimethyl-4-oxo-1-(sulfooxy)azetidin-3-yl]ethanamide] | 2 | 2 | 2 | 32 (≈ 57.6 µM) | 1 (≈ 1.8 µM) | 1 (≈ 1.8 µM) | 0.5 (≈ 0.9 µM) | 16 (≈ 28.8 µM) | 4 (≈ 7.2 µM) | ≤ 0.063 | 4 (≈ 7.2 µM) | 4 (≈ 7.2 µM) | 2 (≈ 3.6 µM) | ≤ 0.063 | 16 (≈ 28.8 µM) | 4 (≈ 7.2 µM) | 4 (≈ 7.2 µM) | 32 (≈ 57.6 µM) | 4 (≈ 7.2 µM) | MIC [8]: 16 µg/mL (≈ 28.8 µM) |
| N=C(N)c1ccc(OCCO/N=C(\C(=O)N[C@@H]2C(=O)N(S(=O)(=O)O)[C@@H]2C(N)=O)c2csc(N)n2)cc1 [Example 66, (2S,3S)-3-{[(2Z)-2-(2-Amino-1,3-thiazol-4-yl)-2-{[2-(4-carbamimidoylphenoxy)-ethoxy]imino}acetyl]amino}-2-carbamoyl-4-oxoazetidine-1-sulfonic acid] | 2 | 2 | 2 | 4 (≈ 7.4 µM) | 2 (≈ 3.7 µM) | 2 (≈ 3.7 µM) | 2 (≈ 3.7 µM) | 32 (≈ 59.2 µM) | 4 (≈ 7.4 µM) | 1 (≈ 1.85 µM) | 1 (≈ 1.85 µM) | 16 (≈ 29.6 µM) | 2 (≈ 3.7 µM) | 1 (≈ 1.85 µM) | 4 (≈ 7.4 µM) | 2 (≈ 3.7 µM) | 16 (≈ 29.6 µM) | 32 (≈ 59.2 µM) | – | – |
| C[C@H]1[C@H](NC(=O)/C(=N\OCCOc2ccc(C(=N)NCCO)cc2)c2csc(N)n2)C(=O)N1S(=O)(=O)O [Example 69, (2S,3S)-3-({(2Z)-2-(2-Amino-1,3-thiazol-4-yl)-2-[(2-{4-[N-(2-hydroxyethyl)carbamimidoyl]-phenoxy}ethoxy)imino]acetyl}amino)-2-methyl-4-oxoazetidine-1-sulfonic acid] | 0.25 | 0.25 | 0.25 | 16 (≈ 28.8 µM) | 0.125 (≈ 0.225 µM) | 0.125 (≈ 0.225 µM) | ≤ 0.063 | 4 (≈ 7.2 µM) | 0.25 (≈ 0.45 µM) | ≤ 0.063 | 0.25 (≈ 0.45 µM) | 1 (≈ 1.8 µM) | 0.125 (≈ 0.225 µM) | ≤ 0.063 | 2 (≈ 3.6 µM) | 0.25 (≈ 0.45 µM) | 1 (≈ 1.8 µM) | 8 (≈ 14.4 µM) | 4 (≈ 7.2 µM) | – |
| CC1(C)[C@H](NC(=O)/C(=N\OCCOc2ccc(C(=N)NCC[N+]3(C)CCCC3)cc2)c2csc(N)n2)C(=O)N1OS(=O)(=O)O.O=C([O-])C(F)(F)F [Example 79, 1-(2-{[{4-[2-({[(1Z)-1-(2-Amino-1,3-thiazol-4-yl)-2-{[(3S)-2,2-dimethyl-4-oxo-1-(sulfo-oxy)azetidin-3-yl]amino}-2-oxoethylidene]amino}oxy)ethoxy]phenyl}(imino)-methyl]amino}ethyl)-1-methylpyrrolidinium chloride] | 0.5 | 0.5 | 0.5 | 8 | 1 | 0.25 | ≤ 0.063 | 8 | 0.5 | ≤ 0.063 | 0.5 | 4 | 0.5 | ≤ 0.063 | 0.5 | 0.5 | 2 | 8 | 2 | MIC [8]: 4 µg/mL |
| CC1(C)[C@H](NC(=O)/C(=N\O[C@H](COc2ccc(C(=N)NC(CN)CN)cc2)C(=O)O)c2csc(N)n2)C(=O)N1OS(=O)(=O)O [Example 103, (2R)-2-({[(1Z)-1-(2-Amino-1,3-thiazol-4-yl)-2-{[(3S)-2,2-dimethyl-4-oxo-1-(sulfooxy)-azetidin-3-yl]amino}-2-oxoethylidene]amino}oxy)-3-{4-[N-(1,3-diaminopropan-2-yl)carbamimidoyl]phenoxy}propanoic acid] | – | – | – | – | 2 (≈ 3.04 µM) | – | 0.25 (≈ 0.38 µM) | 16 (≈ 24.3 µM) | – | 4 (≈ 6.08 µM) | – | – | 2 (≈ 3.04 µM) | ≤ 0.063 | 32 (≈ 48.7 µM) | – | 32 (≈ 48.7 µM) | – | – | – |
